Data: ChEMBL document CHEMBL4219081, “Discovery of 1,2,3,4-tetrahydropyrimido[1,2-a]benzimidazoles as novel class of corticotropin releasing factor 1 receptor antagonists” (Bioorg Med Chem, 2018)
Converted amounts (≈) assume the structure as drawn.

Assays:
[1] = Lipophilicity, log D of the compound at pH 7.4; type: physicochemical; conditions: buffer
[2] = Solubility of the compound in JP2 buffer at pH 6.8 at 10 mmol/L; type: physicochemical
[3] = Oral bioavailability in rat at 1 mg/kg administered as cassette dose; type: ADME, organism-based; conditions: in vivo
[4] = Kinetic solubility in PBS; type: physicochemical; conditions: read-out: Kinetic_solubility
[5] = Oral bioavailability in rat at 5 mg/kg administered as cassette dose; type: ADME, organism-based; conditions: in vivo

CCC(c1ccc(Cl)c2nc3n(c12)CCCN3c1ccc(Cl)cc1Cl)n1ccnc1 (configuration not stated)
logD [1]: 3.53

CCC(=O)c1ccc(Cl)c2nc3n(c12)CCCN3c1ccc(Cl)cc1Cl
logD [1]: 4.01

CCN(CC)c1ccc(Cl)c2nc3n(c12)CCCN3c1ccc(Cl)cc1Cl
logD [1]: 5.25
solubility [2]: < 0.06 µg/mL
bioavailability [3]: 4.1%

CCC(OC)c1ccc(Cl)c2nc3n(c12)CCCN3c1ccc(Cl)cc1Cl (configuration not stated)
logD [1]: 4.38

CCC(C#N)c1ccc(Cl)c2nc3n(c12)CCCN3c1ccc(Cl)cc1Cl (configuration not stated)
logD [1]: 3.69

COc1nc(C)c(N2CCCn3c2nc2c(Cl)ccc([C@@H](OC(F)F)C(F)(F)F)c23)c(C)n1
logD [1]: 3.18
solubility kinetic [4]: 55 µg/mL (≈ 112 µM)
bioavailability [5]: 68%

CCC(O)c1ccc(Cl)c2nc3n(c12)CCCN3c1ccc(Cl)cc1Cl (configuration not stated)
logD [1]: 3.57

COc1nc(C)nc(OC)c1N1CCCn2c1nc1c(Cl)ccc(C(OC(F)F)C(F)(F)F)c12 (racemic)
logD [1]: 3.71
solubility [2]: 14 µg/mL (≈ 27.6 µM)

CCc1nc(C)c(N2CCCn3c2nc2c(Cl)ccc(C(OC(F)F)C(F)(F)F)c23)c(C)n1 (racemic)
logD [1]: 3.21
solubility [2]: 37 µg/mL (≈ 75.5 µM)

COc1ccc(N2CCCn3c2nc2c(Cl)ccc(C(OC(F)F)C(F)(F)F)c23)c(C)n1 (racemic)
logD [1]: 3.43
solubility [2]: 17 µg/mL (≈ 35.7 µM)

COc1nc(C)c(N2CCCn3c2nc2c(Cl)ccc(C(OC(F)F)C(F)(F)F)c23)c(C)n1 (racemic)
logD [1]: 3.08
solubility [2]: 54 µg/mL (≈ 110 µM)

Cc1nc(C)c(N2CCCn3c2nc2c(Cl)ccc(C(OC(F)F)C(F)(F)F)c23)c(C)n1 (racemic)
logD [1]: 2.87
solubility [2]: 71 µg/mL (≈ 149 µM)

CCc1nc(C)nc(CC)c1N1CCCn2c1nc1c(Cl)ccc(C(OC(F)F)C(F)(F)F)c12 (racemic)
logD [1]: 3.52
solubility [2]: 46 µg/mL (≈ 91.3 µM)

FC(F)OC(c1ccc(Cl)c2nc3n(c12)CCCN3c1ccc(Cl)cc1Cl)C(F)(F)F (racemic)
logD [1]: 4.3
solubility [2]: < 0.09 µg/mL

COc1ccc(N2CCCn3c2nc2c(Cl)ccc(C(OC(F)F)C(F)(F)F)c23)c(C)c1 (racemic)
logD [1]: 3.76
solubility [2]: 1.5 µg/mL (≈ 3.15 µM)
